In one test the target is Imidazoline, I2, central. The experiment in a line: Imidazoline, I2, central; [3H]2-BFI. The class given is binding. The following applies: reference compound, QA/QC; read-out: Ref Kj.
The target in the next test is Melatonin. Kind of test: Melatonin; [125I]-2-Iodomelatonin. It is filed as binding. Conditions: reference compound, QA/QC; read-out: Ref Kj.
The next test has as its target Imidazoline, I1. The experiment in a line: Imidazoline, I1; [125I]-Clonidine. The class given is binding. The following applies: reference compound, QA/QC; read-out: Ref Kj.
For test [1], the target named is Glutamate, NMDA, Glycine (Stry-insens Site). The class given is binding. The following applies: read-out: Ref Kj.
In another test the target is Histamine, H3. The experiment in a line: Histamine, H3; [3H]N-a-MeHistamine. The class given is binding. The following applies: reference compound, QA/QC; read-out: Ref Kj.
Test [2] has as its target Glutamate, NMDA Agonist Site. The experiment in a line: Glutamate, NMDA Agonist Site; [3H]CGP 39653. It is filed as binding. The following applies: reference compound, QA/QC; read-out: Ref Kj.
Another test concerns the target Glucocorticoid (UniProt P06536). Conditions: read-out: Ref Kj.
The target of the next test is T1, Histamine, H1 (Bos taurus, UniProt P30546).
T1 construct: no other source notation after assay name denotes animal cell or animal tissue source; from tissue; host or cells: animal cell or animal tissue, not specified
T1 sequence (P30546 whole entry): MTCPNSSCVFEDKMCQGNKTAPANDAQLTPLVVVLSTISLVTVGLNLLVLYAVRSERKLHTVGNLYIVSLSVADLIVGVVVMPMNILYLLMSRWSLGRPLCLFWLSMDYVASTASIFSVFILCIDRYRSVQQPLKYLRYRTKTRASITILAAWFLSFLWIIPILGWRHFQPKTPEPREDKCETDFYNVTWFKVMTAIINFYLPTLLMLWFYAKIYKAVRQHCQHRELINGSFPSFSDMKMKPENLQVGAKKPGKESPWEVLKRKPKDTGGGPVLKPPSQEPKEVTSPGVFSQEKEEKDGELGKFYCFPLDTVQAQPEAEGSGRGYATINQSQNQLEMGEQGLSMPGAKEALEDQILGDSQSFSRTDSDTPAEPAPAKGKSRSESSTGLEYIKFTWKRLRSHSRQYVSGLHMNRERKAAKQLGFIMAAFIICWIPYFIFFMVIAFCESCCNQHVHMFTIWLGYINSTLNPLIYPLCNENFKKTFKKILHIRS
Kind of test: Histamine, H1; [3H]Pyrilamine. The class given is binding.

SMILES strings stand for the structures. Structures can show the parent of a compound that is named as a salt.

Sequence of Glucocorticoid (P06536 whole entry): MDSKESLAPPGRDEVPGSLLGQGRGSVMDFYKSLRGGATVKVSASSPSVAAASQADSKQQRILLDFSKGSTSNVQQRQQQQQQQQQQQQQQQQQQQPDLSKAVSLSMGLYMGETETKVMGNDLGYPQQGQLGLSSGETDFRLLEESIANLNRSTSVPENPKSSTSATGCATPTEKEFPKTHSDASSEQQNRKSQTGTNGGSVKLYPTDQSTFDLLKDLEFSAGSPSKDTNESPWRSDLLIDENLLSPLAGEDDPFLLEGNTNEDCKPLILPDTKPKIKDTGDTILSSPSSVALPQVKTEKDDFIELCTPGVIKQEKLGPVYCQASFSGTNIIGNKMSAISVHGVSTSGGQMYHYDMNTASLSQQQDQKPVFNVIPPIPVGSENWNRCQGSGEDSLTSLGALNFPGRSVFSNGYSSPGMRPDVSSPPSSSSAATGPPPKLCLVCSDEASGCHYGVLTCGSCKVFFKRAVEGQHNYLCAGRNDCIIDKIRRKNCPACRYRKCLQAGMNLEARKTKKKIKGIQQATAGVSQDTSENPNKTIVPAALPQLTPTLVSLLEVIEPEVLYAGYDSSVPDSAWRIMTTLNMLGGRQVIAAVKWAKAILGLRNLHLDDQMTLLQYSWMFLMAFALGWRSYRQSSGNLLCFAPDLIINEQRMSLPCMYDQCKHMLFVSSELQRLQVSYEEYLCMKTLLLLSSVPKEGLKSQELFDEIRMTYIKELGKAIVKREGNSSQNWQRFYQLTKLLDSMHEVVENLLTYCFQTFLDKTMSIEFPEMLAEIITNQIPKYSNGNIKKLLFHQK

Take `c1ccc2oc(C3=NCCN3)cc2c1` [2-BFI]: the Ki on Imidazoline, I2, central was found to be 0.054 nM.

Take `COc1ccc2[nH]c(I)c(CCNC(C)=O)c2c1` [2-Iodomelatonin]: at Melatonin, the Ki worked out at […].

As to `Clc1cc(I)cc(Cl)c1NC1=NCCN1` [Iodoclonidine], the Ki at Imidazoline, I1 is 7.89 nM.

Turning to `O=C(O)/C(=C/c1c(C(=O)O)[nH]c2cc(Cl)cc(Cl)c12)c1ccccc1` [MDL-105,519], the Ki in test [1] worked out at 16.3 nM.

As to `CNCCc1cnc[nH]1` [N-a-Methylhistamine (NAMH), N-a-Methylhistamine], at Histamine, H3, the Ki is 1.31 nM.

Turning to `CN[C@H](CC(=O)O)C(=O)O` [NMDA], the Ki in test [2] came out at 13100 nM.

In the case of `C[C@]12C=CC(=O)C=C1CC[C@H]1[C@@H]3C[C@@H](O)[C@](O)(C(=O)CO)[C@@]3(C)C[C@H](O)[C@@]12F` [Triamcinolone], at Glucocorticoid, the Ki was 1.74 nM.

Consider `Cc1ccc(/C(=C\CN2CCCC2)c2ccccn2)cc1` [Triprolidine HCl], for which, at Histamine, H1, the Ki came to 3.6 nM.
